# Experimental data as given in patent US20070010671A1, “Novel quinazoline derivatives and methods of treatment related to the use thereof” (priority 2003, published 2007).
# Target: MCH receptor (Homo sapiens, UniProt Q99705)
# Assay: High throughput functional screening FLIPR/FDSS6000: inhibition of MCH-evoked intracellular Ca2+ changes
# Assay type: cell-based
# Conditions: class by percent of control at 10^-7 M or IC50
# In short: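 Constitutively active non-endogenous MCH-R cells; Fluo4-AM 4 μM, 2.5 mM probenecid, 1 hr, 37° C; cpd 3 min, 37° C; MCH 50 nM (antagonist mode); kinetic Ca2+ read Ex488/Em530, 290 s.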
row,Compound,class
1,CC(C)c1cccc(C(C)C)c1NC(=O)NC[C@H]1CC[C@@H](Nc2nc(N(C)C)c3ccccc3n2)CC1 [compound 468],1 (Class 1: The value of percent of control at 10^−7 M was less than 40% or the value of IC50 was less than 50 nM.)
2,CN(C)c1nc(N[C@H]2CC[C@@H](CNC(=O)NC(=O)c3ccccc3)CC2)nc2ccccc12 [compound 408],3 (Class 3: The value of percent of control at 10^−7 M was more than 60% or the value of IC50 was more than 200 nM.)
3,COc1ccc(NC(=S)N[C@H]2CC[C@@H](Nc3nc(N(C)C)c4ccccc4n3)CC2)c([N+](=O)[O-])c1 [compound 276],3 (Class 3: The value of percent of control at 10^−7 M was more than 60% or the value of IC50 was more than 200 nM.)
4,"CN(C)c1nc(N[C@H]2CC[C@@H](CNC(=O)Nc3cccc(F)c3)CC2)nc2ccccc12 [compound 438, N-[(cis-4-{[4-(dimethylamino)quinazolin-2-yl]amino}cyclohexyl)methyl]-N′-(3-fluorophenyl)urea]",2 (Class 2: The value of percent of control at 10^−7 M was from 40% to 60% or the value of IC50 was from 50 nM to 200 nM.)
5,"Cc1cc(C)c(NC(=S)NC[C@H]2CC[C@@H](Nc3nc(N(C)C)c4ccccc4n3)CC2)c(C)c1 [compound 672, N-[(cis-4-{[4-(dimethylamino)quinazolin-2-yl]amino}cyclohexyl)methyl]-N′-mesitylthiourea]",2 (Class 2: The value of percent of control at 10^−7 M was from 40% to 60% or the value of IC50 was from 50 nM to 200 nM.)
6,CN(C)c1nc(N[C@H]2CC[C@@H](NC(=S)Nc3c(F)cc(F)cc3F)CC2)nc2ccccc12 [compound 247],3 (Class 3: The value of percent of control at 10^−7 M was more than 60% or the value of IC50 was more than 200 nM.)
7,"Cc1cccc([N+](=O)[O-])c1NC(=O)NC[C@H]1CC[C@@H](Nc2nc(N(C)C)c3ccccc3n2)CC1 [compound 509, N-[(cis-4-{[4-(dimethylamino)quinazolin-2-yl]amino}cyclohexyl)methyl]-N′-(2-methyl-6-nitrophenyl)urea]",1 (Class 1: The value of percent of control at 10^−7 M was less than 40% or the value of IC50 was less than 50 nM.)
8,CN(C)c1nc(N[C@H]2CC[C@@H](CNC(=S)Nc3ccc(F)cc3F)CC2)nc2ccccc12 [compound 635],3 (Class 3: The value of percent of control at 10^−7 M was more than 60% or the value of IC50 was more than 200 nM.)
9,CN(C)c1nc(N[C@H]2CC[C@@H](NC(=S)Nc3ccc(Sc4ccc([N+](=O)[O-])cc4)cc3)CC2)nc2ccccc12 [compound 318],3 (Class 3: The value of percent of control at 10^−7 M was more than 60% or the value of IC50 was more than 200 nM.)
10,"Cc1cccc(NC(=O)NC[C@H]2CC[C@@H](Nc3nc(N(C)C)c4ccccc4n3)CC2)c1 [compound 459, N-[(cis-4-{[4-(dimethylamino)quinazolin-2-yl]amino}cyclohexyl)methyl]-N′-(3-methylphenyl)urea]",2 (Class 2: The value of percent of control at 10^−7 M was from 40% to 60% or the value of IC50 was from 50 nM to 200 nM.)
11,CN(C)c1nc(N[C@H]2CC[C@@H](NC(=S)NCC3CC3)CC2)nc2ccccc12 [compound 379],3 (Class 3: The value of percent of control at 10^−7 M was more than 60% or the value of IC50 was more than 200 nM.)
12,CN(C)c1nc(N[C@H]2CC[C@@H](NC(=O)Nc3ccc(OC(F)(F)F)cc3)CC2)nc2ccccc12 [compound 332],3 (Class 3: The value of percent of control at 10^−7 M was more than 60% or the value of IC50 was more than 200 nM.)
13,CN(C)c1nc(N[C@H]2CC[C@@H](CNC(=S)Nc3ccccc3OC(F)(F)F)CC2)nc2ccccc12 [compound 631],2 (Class 2: The value of percent of control at 10^−7 M was from 40% to 60% or the value of IC50 was from 50 nM to 200 nM.)
14,"COc1cccc(CNC(=S)N[C@H]2CC[C@@H](Nc3nc(N(C)C)c4ccccc4n3)CC2)c1OC [compound 292, N-(2,3-dimethoxybenzyl)-N′-(cis-4-{[4-(dimethylamino)quinazolin-2-yl]amino}cyclohexyl)thiourea]",1 (Class 1: The value of percent of control at 10^−7 M was less than 40% or the value of IC50 was less than 50 nM.)
15,CN(C)c1nc(N[C@H]2CC[C@@H](CNC(=S)Nc3cc(Cl)cc(Cl)c3)CC2)nc2ccccc12 [compound 647],3 (Class 3: The value of percent of control at 10^−7 M was more than 60% or the value of IC50 was more than 200 nM.)

# Same assay, conditions: class by percent of control at 10^-7 M or by IC50; read-out: class
row,Compound,IC50
1,CCCCCCCCOC(=O)N[C@H]1CC[C@@H](Nc2nc(N(C)C)c3ccccc3n2)CC1 [compound 853],> 200 nM
2,"CN(C)c1nc(N[C@H]2CC[C@@H](NC(=O)Nc3c(Cl)cc(Cl)cc3Cl)CC2)nc2ccccc12 [compound 63, N-(cis-4-{[4-(dimethylamino)quinazolin-2-yl]amino}cyclohexyl)-N′-(2,4,6-trichlorophenyl)urea]",< 50 nM
3,CN(C)c1nc(N[C@H]2CC[C@@H](NC(=O)Nc3cc([N+](=O)[O-])ccc3Cl)CC2)nc2ccccc12 [compound 88],50 to 200 nM
4,CN(C)c1nc(N[C@H]2CC[C@@H](CNC(=O)Oc3ccc(Br)cc3)CC2)nc2ccccc12 [compound 870],> 200 nM
5,C=C(C)CNC(=S)N[C@H]1CC[C@@H](Nc2nc(N(C)C)c3ccccc3n2)CC1 [compound 184],> 200 nM
6,COC(=O)c1sccc1NC(=S)NC[C@H]1CC[C@@H](Nc2nc(N(C)C)c3ccccc3n2)CC1 [compound 802],> 200 nM
7,CCOC(=O)CNC(=O)N[C@H]1CC[C@@H](Nc2nc(N(C)C)c3ccccc3n2)CC1 [compound 28],> 200 nM
8,"COc1ccc(NC(=O)N[C@H]2CC[C@@H](Nc3nc(N(C)C)c4ccccc4n3)CC2)c(C)c1 [compound 827, N-(cis-4-{[4-(dimethylamino)quinazolin-2-yl]amino}cyclohexyl)-N′-(4-methoxy-2-methylphenyl)urea]",< 50 nM

# Same assay, conditions: class by percent of control at 10^−7 M or by IC50; read-out: class
row,Compound,IC50
1,"CN(C)c1nc(N[C@H]2CC[C@@H](CNC(=O)[C@@H](O)c3cccc(Cl)c3)CC2)nc2ccccc12 [Example 1100, (2S)-2-(3-chlorophenyl)-N-[(cis-4-{[4-(dimethylamino)-quinazolin-2-yl]amino}cyclohexyl)methyl]-2-hydroxyacetamide]",50 to 200 nM
2,"CN(C)c1nc(N[C@H]2CC[C@@H](C(=O)NCc3cc(Br)ccc3F)CC2)nc2ccccc12 [Example 1163, cis-N-(5-bromo-2-fluorobenzyl)-4-{[4-(dimethylamino)quinazolin-2-yl]amino}cyclohexanecarboxamide]",< 50 nM
3,"CN(C)c1nc(N[C@H]2CC[C@@H](NC(=O)Nc3c(Cl)cccc3Cl)CC2)nc2ccccc12 [Example 1012, N-(2,6-dichlorophenyl)-N′-(cis-4-{[4-(dimethylamino)quinazolin-2-yl]amino}cyclohexyl)urea]",> 200 nM
4,"CN(C)c1nc(N[C@H]2CC[C@@H](NC(=O)c3ccc(Oc4cccc(C(F)(F)F)c4)nc3)CC2)nc2ccccc12 [Example 1057, N-(cis-4-{[4-(dimethylamino)quinazolin-2-yl]amino}cyclohexyl)-6-[3-(trifluoromethyl)phenoxy]nicotinamide]",< 50 nM
5,"CN(C)c1nc(N[C@H]2CC[C@@H](C(=O)NCc3cccc(I)c3)CC2)nc2cc(F)c(F)cc12 [Example 1006, cis-4-{[4-(dimethylamino)-6,7-difluoroquinazolin-2-yl]amino}-N-(3-iodobenzyl)cyclohexanecarboxamide]",50 to 200 nM
